For 15 molecules, Colony increase multiple results are on record in US8343698B2, “Photoreceptor, method of manufacturing same, image formation method, image forming apparatus, and process cartridge” (Ricoh Company, Ltd., priority 2009, dated 2013).

In this data set the test system is salmonella of TA1535. Description: Mutation test (Ames test), plate method. The note with it: strain TA1535, plate method, under metabolic activity condition, 625 to 10,000 micro gram/plate, maximum number of colonies divided by colonies in control solvent, tested on the TMPTA monomer of each example. Format: cell-based. The source says:
One time absorption refinement treatment is effective but multiple time absorption refinement treatments are preferable to improve the removal effect of the impurities. A number of methods for use in the present invention of measuring the safety of the radical polymerizable monomer can be used. Ames test (mutagen test) is employed in the present invention.
Ames test is a test in which germs are used. The strain among salmonellas used in the test is histidine auxotroph (his−), which cannot synthesize histidine. In the test, the number of colonies of recoveries from histidine auxotroph (his−) to (his+) which can synthesize histidine again as a result of a test material reacting with the strain is counted to determine the mutation property of the material.
Currently, among these strains, TA1535, TA1537, TA100, TA98 or WP2uvrA—are generally used. When TA1535 is used, radical polymerizable monomers in the market are frequently positive. Therefore, TA1535 test is employed in the present invention.
“Mutation test in Ordinance on Safety and Hygiene—Guideline and GLP— (published by Japan industrial Safety & Health Association)” is referred to with regard to the specific test method.
A mutation test (Ames test) is employed to check the safety in the present invention.
A plate method is adopted as the test method in the present invention.
TA1535 is used as the strain and the test is conducted under the condition of metabolic activity.
Add 250 mg of dimethylsulfoxide (DIMSO) to 250 mg of a radical polymerizable monomer having at least 3 functional groups with no charge transport structure followed by ultrasonic treatment for one minute to prepare a clear solution for the test.
5 kinds of densities (625 micro gram/plate, 1,250 micro gram/plate, 2,500 micro gram/plate, 5,000 micro gram/plate, and 10,000 micro gram/plate) of the radical polymerizable monomer having at least 3 functional groups with no charge transport structure are used. Among these, the quotient (referred to as “colony increase multiple” in the present invention) obtained by dividing the maximum number of the colonies with the number of colonies in the control solvent is used for comparison. The smaller the quotient, the safer the test sample.
Background: In the Ames test, an excess of revertant colonies over the control signals mutagenicity.

`C=CC(=O)OCC(CC)(COC(=O)C=C)COC(=O)C=C` [Ex. 1, trimethylol propane triacrylate] showed a Colony increase multiple of 1.2. This molecule gave a Colony increase multiple (listed as Example 1) of 1.2.
On to `C=CC(=O)OCC(CC)(COC(=O)C=C)COC(=O)C=C` [Comp. 2, trimethylol propane triacrylate], for which the Colony increase multiple is 2.7. Also, the Colony increase multiple (listed as Comparative Example 2) is 2.7.
As to `C=CC(=O)OCC(CC)(COC(=O)C=C)COC(=O)C=C` [Ex. 11, trimethylol propane triacrylate], the Colony increase multiple is 1.4. The molecule also gave a Colony increase multiple (listed as Example 11) of 1.4.
`C=CC(=O)OCC(CC)(COC(=O)C=C)COC(=O)C=C` [Ex. 10, trimethylol propane triacrylate] came in with a Colony increase multiple of 1.9. The molecule further yielded a Colony increase multiple (listed as Example 10) of 1.9.
With `C=CC(=O)OCC(CC)(COC(=O)C=C)COC(=O)C=C` [Ex. 8, trimethylol propane triacrylate], the Colony increase multiple was determined as 2.6. For the setting “listed as Example 8”, this molecule came in with a Colony increase multiple of 2.6.
Take `C=CC(=O)OCC(CC)(COC(=O)C=C)COC(=O)C=C` [Ex. 9, trimethylol propane triacrylate]: the Colony increase multiple was determined as 2.1. The Colony increase multiple (listed as Example 9) is 2.1.
Molecule `C=CC(=O)OCC(CC)(COC(=O)C=C)COC(=O)C=C` [Ex. 4, trimethylol propane triacrylate] returned a Colony increase multiple of 1.1. The same molecule registered a Colony increase multiple (listed as Example 4) of 1.1.
As to `C=CC(=O)OCC(CC)(COC(=O)C=C)COC(=O)C=C` [Ex. 7, trimethylol propane triacrylate], the Colony increase multiple is listed as 1.9. The same molecule showed a Colony increase multiple (listed as Example 7) of 1.9.
On to `C=CC(=O)OCC(CC)(COC(=O)C=C)COC(=O)C=C` [Ex. 6, trimethylol propane triacrylate], for which the Colony increase multiple is 2.5. Further, under “listed as Example 6”, the Colony increase multiple came out at 2.5.
As for `C=CC(=O)OCC(CC)(COC(=O)C=C)COC(=O)C=C` [Comp. 1, trimethylol propane triacrylate], the Colony increase multiple worked out at 3.4. For the same molecule, the Colony increase multiple (listed as Comparative Example 1) is listed as 3.4.
As to `C=CC(=O)OCC(CC)(COC(=O)C=C)COC(=O)C=C` [Ex. 12, trimethylol propane triacrylate], the Colony increase multiple is recorded as 1.4. The Colony increase multiple (listed as Example 12) is on record as 1.4.
`C=CC(=O)OCC(CC)(COC(=O)C=C)COC(=O)C=C` [Comp. 3, trimethylol propane triacrylate] gave a Colony increase multiple of 2.7. The Colony increase multiple (listed as Comparative Example 3) was determined as 2.7.
As to `C=CC(=O)OCC(CC)(COC(=O)C=C)COC(=O)C=C` [Ex. 2, trimethylol propane triacrylate], the Colony increase multiple was determined as 1.1. The molecule also yielded a Colony increase multiple (listed as Example 2) of 1.1.
The molecule `C=CC(=O)OCC(CC)(COC(=O)C=C)COC(=O)C=C` [Ex. 3, trimethylol propane triacrylate] returned a Colony increase multiple of 1.2. The Colony increase multiple (listed as Example 3) turned out to be 1.2.
`C=CC(=O)OCC(CC)(COC(=O)C=C)COC(=O)C=C` [Ex. 5, trimethylol propane triacrylate] displayed a Colony increase multiple of 1.4. Besides, the Colony increase multiple (listed as Example 5) came out at 1.4.
